Measured values: patent US20020076443A1, “Multiple phase cross-linked compositions and uses thereof” (priority 2000, published 2002)

Assays:
Water solubility = format: physicochemical; settings: clinical grade dextran of about 70 kDa versus HSA
[1] = cited from earlier work

For dextran, the “water solubility, fold lower than HSA” value (Water solubility) is given as over 10 fold and the water solubility [1] is given as “about 30 mg/mL”.
